Results reported in patent US9862754B2, “Peptide analogs for treating diseases and disorders” (KeyBioscience AG, priority 2011, dated 2018).
Bridge positions count the residues as written; N and C are the ends. Ends that are not written are not given here.

Tests used:
[1] = Example 7: combination with metformin in Zucker Diabetic Fatty rats, FPG, PPG, HbA1c; format: in vivo, rat; details: ZDF rats; 8 weeks once daily; metformin 400 mg/kg/day oral, UGP302 5 μg/kg/day s.c.
Procedure: To assess the potential of UGP302 (SEQ ID NO: 15) in combination with metformin, Zucker Diabetic Fatty rats were used. At the age of 6 weeks 40 rats were randomized into four groups according to HbA1c, FPG and BW. The groups were: Control (Vehicle), Metformin 400 mg/kg/day, UGP302 5 μg/kg/day and the combination of the two molecules in the stated respective amounts. The treatments were given once daily, and metformin was dosed orally, while UGP302 was given subcutaneously, and the animals were treated for 8 weeks. Fasting blood glucose (FPG) and non-fasted blood glucose (PPG) were monitored biweekly, while HbA1c was measured at termination.

CTX-II = assay: Example 6: serum CTX-II (Serum PC Cartilaps ELISA), cartilage degradation in DIO rats; format: in vivo, rat; details: 1 mg/kg p.o. with 150 mg/kg 5-CNAC, 2 hours after treatment, vs sCT
Procedure: (§1) The effect of sCT/calcitonin mimetic on bone and cartilage loss was studied in DIO rats. The animals were dosed as described in Table 6 below, and 2 hours after treatment blood sampling was done by heated tail venous puncture.
(§2) Serum CTX-I levels, as an indication of bone resorption, were measured using the RatLaps™ ELISA, and serum CTX-II levels, as an indication of cartilage degradation, were measured using the Serum PC Cartilaps™ ELISA.

CTX-I = assay: Example 6: serum CTX-I (RatLaps ELISA), bone resorption in DIO rats; format: in vivo, rat; details: 1 mg/kg p.o. with 150 mg/kg 5-CNAC, 2 hours after treatment, vs sCT
Procedure: as §1, §2

[2] = target: T1, T47D cell calcitonin receptors (Homo sapiens, UniProt P30988); assay: Example 4: T47D bioassay, binding of sCT analogs to T47D cell calcitonin receptors (cAMP); format: cell-based; details: T47D cells; sCT set at 100% at 1000 pg/mL; various concentrations
T1 construct: This cell line is known to have the following receptors: calcitonin, androgen, progesterone; endogenous in cells; host or cells: T47D (human breast epithelial cell line)
T1 sequence (P30988 25-474): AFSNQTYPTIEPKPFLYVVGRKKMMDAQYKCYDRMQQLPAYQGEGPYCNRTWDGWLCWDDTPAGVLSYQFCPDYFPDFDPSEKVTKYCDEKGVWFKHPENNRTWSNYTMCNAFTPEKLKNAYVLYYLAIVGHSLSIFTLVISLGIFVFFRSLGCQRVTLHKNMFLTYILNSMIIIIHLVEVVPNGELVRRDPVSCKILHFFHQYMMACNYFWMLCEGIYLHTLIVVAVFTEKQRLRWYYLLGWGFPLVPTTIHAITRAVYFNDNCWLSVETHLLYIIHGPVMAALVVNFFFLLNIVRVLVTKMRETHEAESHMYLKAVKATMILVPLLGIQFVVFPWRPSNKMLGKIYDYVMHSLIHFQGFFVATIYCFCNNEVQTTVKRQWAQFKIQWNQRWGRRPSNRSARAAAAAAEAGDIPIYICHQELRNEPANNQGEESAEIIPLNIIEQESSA
Procedure: sCT analogs at various concentrations were tested in a T47D (human breast epithelial cell line) bioassay. This cell line is known to have the following receptors: calcitonin, androgen, progesterone, glucocrticoid, prolactin and estrogen. The results are presented in FIG. 11 as % cAMP binding relative to sCT which was set at 100% cAMP binding at a concentration of 1000 pg/mL.

[3] = Example 1: OGTT after 2 weeks of oral treatment in DIO rats; format: in vivo, rat; details: after 2 weeks of treatment, overnight fasting, 1 mg/kg p.o., vs oral vehicle
Procedure: Drug administration by per oral (p.o.) gavage b.i.d. (7-8 am and 3-4 pm) during the study period and as single dose in the morning prior to start of OGTT.
Animals were given 2 g/kg single dose dissolved in milliQ H20.
OGTT Following Overnight Fasting (16 h):
Blood sampling and glycemia were measured by heated tail venous puncture.
Whole blood glucose levels were determined with an ACCU-CHEK® Avia blood glucose meter (Roche Diagnostics, Rotkreuz, Switzerland). Blood (approx 300 ul) is collected in 1 ml MiniCollect K3EDTA plasma-tube (Greiner-Bio-One GmbH, Frickenhausen, Germany), inverted, and stored on ice. Tubes are centrifuged 3000×g (5000 rpm in table centrifuge) for 10 min at 4° C. and plasma obtained. Plasma samples are stored at −20° C. until analysis. A total of ˜2.5 ml blood is obtained during OGTT (˜0.3% of body weight).
Statistical analysis was performed by one-way ANOVA followed by the Dunnett's post hoc test for multiple comparison. Student's t-test was performed to compare two paired group. All analysis was performed using GRAPHPAD PRISM software (GraphPad Prism, San Diego, Calif. U.S.A). Incremental area under curve (iAUC) during OGTT was calculated by the trapezoidal method. A value of P<0.05 was considered to be significant. All data are presented as mean±standard error of the mean (SEM). […]

Substance | fasting blood glucose (FPG) [1] | non-fasted blood glucose (PPG) [1] | cartilage degradation (serum CTX-II levels) (CTX-II) | bone resorption (serum CTX-I levels) (CTX-I) | % cAMP binding relative to sCT [2] | glucose iAUC during OGTT [3]
Ac-CSNLSTCVLGKLSQELHKLQTYPRTDVGANAP-NH2 (Ac-CSNLSTCVLGKLSQELHKLQTYPRTDVGANAP-NH2; ends and bridges not checked) [UGP302, calcitonin mimetic] | pronounced reduction throughout the study | pronounced reduction throughout the study | stronger effect in reduction | stronger effect in reduction | highest level of binding of all the tested compounds | –
salmon calcitonin (CSNLSTCVLGKLSQELHKLQTYPRTNTGSGTP-NH2; disulfide 1-7; ends not checked) [sCT, reference compound] | – | – | – | – | – | significantly reduced glucose iAUC
